# From PubChem BioAssay AID588642 (The Scripps Research Institute Molecular Screening Center, 2011)
# Activity calls are given as the source filed them.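 The calls were made as follows: active = MAPK1 kinase protein level shifted by at least 30% from solvent-only cells, either down or up; inactive = shift in protein level under 30% either way.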
# Target: Mitogen-activated protein kinase 1 (Homo sapiens) (UniProt P28482)
# Experiment: MAPK1 abundance shift in treated cells – cell-based, HCT116 colorectal carcinoma, chemiluminescent western blot, counter-screen for KLF5 inhibitor project, late-stage follow-up (AID 588642)
# Conditions: HCT116 ERK1/2 protein level, 24 h, at 10 µM, active compounds read high
# Chain of Mitogen-activated protein kinase 1 (Homo sapiens) (P28482 whole entry, looked up): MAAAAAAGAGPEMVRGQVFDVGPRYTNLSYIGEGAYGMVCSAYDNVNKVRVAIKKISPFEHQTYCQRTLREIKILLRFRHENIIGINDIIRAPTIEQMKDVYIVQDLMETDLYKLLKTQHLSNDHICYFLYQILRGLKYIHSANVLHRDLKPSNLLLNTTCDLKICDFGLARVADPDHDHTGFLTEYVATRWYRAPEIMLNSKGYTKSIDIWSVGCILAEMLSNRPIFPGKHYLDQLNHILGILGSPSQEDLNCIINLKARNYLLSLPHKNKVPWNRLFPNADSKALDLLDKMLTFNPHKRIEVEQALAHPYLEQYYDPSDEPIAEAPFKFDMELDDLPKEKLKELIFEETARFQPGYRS
row,SMILES,inhibition
1,CN(C(=O)CNC(=O)/C=C/c1cccc(Cl)c1)C1CCS(=O)(=O)C1 (stereo not drawn),5.48% (inactive)
2,CN(C(=O)COC(=O)/C=C/c1cccc([N+](=O)[O-])c1)C1CCS(=O)(=O)C1 (stereo not drawn),4.62% (inactive)
3,CN(C(=O)CNC(=O)/C=C/c1cccc(Cl)c1)C1CCS(=O)(=O)CC1,3.03% (inactive)
